Laboratory results as given in patent US12516056B2, “Compounds for inhibition of janus kinase 1” (MANKIND PHARMA LTD., priority 2019, dated 2026).

Assays:
Recombinant JAK1 = target: T1, Recombinant JAK1 (Homo sapiens, UniProt P23458); assay: JAK biochemical assay (LANCE Ultra TR-FRET), JAK1; details: recombinant JAK1, TR-FRET; read-out: Biochemical Assay (μM) JAK1
T1 construct: purchased Carna Biosciences
Procedure, shortened: (§1)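 % inhibition relative to vehicle was derived from TR-FRET signal proportional to ULight-substrate phosphorylation. Reactions used recombinant kinase in HEPES pH 7.5 buffer containing EGTA, MgCl2, DTT and Tween-20.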

Recombinant JAK2 = target: T2, Recombinant JAK2 (Homo sapiens, UniProt O60674); assay: JAK biochemical assay (LANCE Ultra TR-FRET), JAK2; details: recombinant JAK2, TR-FRET; read-out: Biochemical Assay (μM) JAK2
T2 construct: purchased Carna Biosciences
T2 sequence (O60674 whole entry): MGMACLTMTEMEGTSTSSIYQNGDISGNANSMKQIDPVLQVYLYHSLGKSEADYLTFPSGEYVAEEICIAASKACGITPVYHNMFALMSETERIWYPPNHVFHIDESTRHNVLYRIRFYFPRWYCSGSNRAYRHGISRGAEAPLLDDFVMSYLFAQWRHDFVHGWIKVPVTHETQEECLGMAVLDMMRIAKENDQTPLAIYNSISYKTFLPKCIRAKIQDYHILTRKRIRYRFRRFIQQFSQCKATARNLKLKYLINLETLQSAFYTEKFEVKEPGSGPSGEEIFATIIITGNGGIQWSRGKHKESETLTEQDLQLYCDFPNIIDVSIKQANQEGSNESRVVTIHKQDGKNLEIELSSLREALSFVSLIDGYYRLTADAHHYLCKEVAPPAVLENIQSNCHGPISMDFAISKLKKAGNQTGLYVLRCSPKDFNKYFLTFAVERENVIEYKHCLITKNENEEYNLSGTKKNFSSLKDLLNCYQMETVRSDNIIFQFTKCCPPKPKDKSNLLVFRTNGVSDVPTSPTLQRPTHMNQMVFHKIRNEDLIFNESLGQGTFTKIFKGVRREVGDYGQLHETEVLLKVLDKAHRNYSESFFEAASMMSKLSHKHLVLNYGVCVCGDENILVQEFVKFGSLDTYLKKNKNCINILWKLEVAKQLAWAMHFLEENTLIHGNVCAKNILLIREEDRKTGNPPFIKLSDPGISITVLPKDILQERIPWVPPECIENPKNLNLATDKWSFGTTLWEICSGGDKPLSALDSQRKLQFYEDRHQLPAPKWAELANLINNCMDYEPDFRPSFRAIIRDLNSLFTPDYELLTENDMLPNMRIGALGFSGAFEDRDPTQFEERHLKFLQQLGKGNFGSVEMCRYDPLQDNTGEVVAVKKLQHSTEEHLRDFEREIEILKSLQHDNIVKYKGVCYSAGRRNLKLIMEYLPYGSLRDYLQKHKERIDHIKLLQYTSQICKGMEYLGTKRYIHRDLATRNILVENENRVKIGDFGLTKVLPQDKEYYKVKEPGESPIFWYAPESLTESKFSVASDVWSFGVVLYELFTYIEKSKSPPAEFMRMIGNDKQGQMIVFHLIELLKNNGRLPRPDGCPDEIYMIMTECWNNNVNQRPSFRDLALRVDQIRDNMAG
Procedure, shortened: as §1

Recombinant JAK3 = target: T3, Recombinant JAK3 (Homo sapiens, UniProt P52333); assay: JAK biochemical assay (LANCE Ultra TR-FRET), JAK3; details: recombinant JAK3, TR-FRET; read-out: Biochemical Assay (μM) JAK3
T3 construct: purchased Carna Biosciences
T3 sequence (P52333 1-1124): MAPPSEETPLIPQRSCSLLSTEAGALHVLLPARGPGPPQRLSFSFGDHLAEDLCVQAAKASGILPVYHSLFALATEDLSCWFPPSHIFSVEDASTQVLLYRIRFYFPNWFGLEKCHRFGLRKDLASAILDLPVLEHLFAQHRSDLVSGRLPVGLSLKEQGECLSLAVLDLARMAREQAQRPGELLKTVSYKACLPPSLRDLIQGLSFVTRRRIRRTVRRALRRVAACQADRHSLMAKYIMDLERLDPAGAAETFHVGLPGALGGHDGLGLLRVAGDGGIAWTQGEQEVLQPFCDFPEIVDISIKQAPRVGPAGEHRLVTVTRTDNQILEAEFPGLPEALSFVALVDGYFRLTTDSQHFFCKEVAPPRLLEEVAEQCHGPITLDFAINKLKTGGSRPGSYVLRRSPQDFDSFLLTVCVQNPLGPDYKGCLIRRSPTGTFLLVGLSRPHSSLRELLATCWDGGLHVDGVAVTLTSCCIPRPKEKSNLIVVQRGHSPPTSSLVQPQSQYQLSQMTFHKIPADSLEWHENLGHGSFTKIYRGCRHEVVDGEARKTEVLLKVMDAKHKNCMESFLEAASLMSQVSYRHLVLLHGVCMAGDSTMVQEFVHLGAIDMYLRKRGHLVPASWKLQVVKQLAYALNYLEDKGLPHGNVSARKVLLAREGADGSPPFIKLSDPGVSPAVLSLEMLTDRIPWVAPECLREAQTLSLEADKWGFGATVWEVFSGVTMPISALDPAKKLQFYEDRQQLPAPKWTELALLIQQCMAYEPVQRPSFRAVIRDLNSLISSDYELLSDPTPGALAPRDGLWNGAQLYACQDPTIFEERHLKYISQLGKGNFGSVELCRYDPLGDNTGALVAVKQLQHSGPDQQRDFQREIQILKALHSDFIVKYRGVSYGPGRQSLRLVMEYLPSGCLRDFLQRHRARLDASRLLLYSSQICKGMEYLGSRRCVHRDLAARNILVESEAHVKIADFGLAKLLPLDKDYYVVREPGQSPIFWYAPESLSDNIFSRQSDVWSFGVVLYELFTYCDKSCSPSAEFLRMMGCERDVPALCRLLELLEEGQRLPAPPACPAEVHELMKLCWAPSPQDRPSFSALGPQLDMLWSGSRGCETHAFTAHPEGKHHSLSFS
Procedure, shortened: as §1

Recombinant TYK2 = target: T4, Recombinant TYK2 (Homo sapiens, UniProt P29597); assay: JAK biochemical assay (LANCE Ultra TR-FRET), TYK2; details: recombinant TYK2, TR-FRET; read-out: Biochemical Assay (μM) TYK2
T4 construct: purchased Carna Biosciences
T4 sequence (P29597 whole entry): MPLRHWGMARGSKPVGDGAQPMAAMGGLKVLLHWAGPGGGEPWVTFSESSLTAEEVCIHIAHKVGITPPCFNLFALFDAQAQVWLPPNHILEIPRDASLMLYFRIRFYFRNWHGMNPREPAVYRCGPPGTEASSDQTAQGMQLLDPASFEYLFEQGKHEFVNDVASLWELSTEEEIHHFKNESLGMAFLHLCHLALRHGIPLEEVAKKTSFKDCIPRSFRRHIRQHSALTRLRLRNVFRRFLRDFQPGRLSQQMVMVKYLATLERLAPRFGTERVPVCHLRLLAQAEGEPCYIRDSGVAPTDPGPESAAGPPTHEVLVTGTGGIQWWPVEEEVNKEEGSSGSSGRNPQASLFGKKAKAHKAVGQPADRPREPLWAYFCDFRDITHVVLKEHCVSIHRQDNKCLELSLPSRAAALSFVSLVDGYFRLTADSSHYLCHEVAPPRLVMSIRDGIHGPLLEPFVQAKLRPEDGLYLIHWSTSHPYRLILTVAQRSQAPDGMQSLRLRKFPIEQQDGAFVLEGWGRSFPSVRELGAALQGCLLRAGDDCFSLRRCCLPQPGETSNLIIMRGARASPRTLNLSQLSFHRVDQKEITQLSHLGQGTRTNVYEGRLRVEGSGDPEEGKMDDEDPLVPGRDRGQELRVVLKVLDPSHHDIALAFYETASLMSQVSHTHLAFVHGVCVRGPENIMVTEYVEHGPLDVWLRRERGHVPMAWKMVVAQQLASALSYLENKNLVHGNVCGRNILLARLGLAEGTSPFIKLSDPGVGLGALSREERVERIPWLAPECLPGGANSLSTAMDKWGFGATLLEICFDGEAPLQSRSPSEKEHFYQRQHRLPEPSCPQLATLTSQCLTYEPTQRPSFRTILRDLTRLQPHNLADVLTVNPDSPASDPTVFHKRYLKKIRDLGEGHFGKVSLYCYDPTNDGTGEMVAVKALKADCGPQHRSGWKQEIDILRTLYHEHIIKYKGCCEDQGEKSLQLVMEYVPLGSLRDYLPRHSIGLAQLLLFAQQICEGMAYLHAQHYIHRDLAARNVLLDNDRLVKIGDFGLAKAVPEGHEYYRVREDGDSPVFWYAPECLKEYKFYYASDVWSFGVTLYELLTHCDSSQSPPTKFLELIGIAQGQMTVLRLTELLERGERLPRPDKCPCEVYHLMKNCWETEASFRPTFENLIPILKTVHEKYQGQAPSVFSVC
Procedure, shortened: as §1

T1 sequence (P23458 whole entry): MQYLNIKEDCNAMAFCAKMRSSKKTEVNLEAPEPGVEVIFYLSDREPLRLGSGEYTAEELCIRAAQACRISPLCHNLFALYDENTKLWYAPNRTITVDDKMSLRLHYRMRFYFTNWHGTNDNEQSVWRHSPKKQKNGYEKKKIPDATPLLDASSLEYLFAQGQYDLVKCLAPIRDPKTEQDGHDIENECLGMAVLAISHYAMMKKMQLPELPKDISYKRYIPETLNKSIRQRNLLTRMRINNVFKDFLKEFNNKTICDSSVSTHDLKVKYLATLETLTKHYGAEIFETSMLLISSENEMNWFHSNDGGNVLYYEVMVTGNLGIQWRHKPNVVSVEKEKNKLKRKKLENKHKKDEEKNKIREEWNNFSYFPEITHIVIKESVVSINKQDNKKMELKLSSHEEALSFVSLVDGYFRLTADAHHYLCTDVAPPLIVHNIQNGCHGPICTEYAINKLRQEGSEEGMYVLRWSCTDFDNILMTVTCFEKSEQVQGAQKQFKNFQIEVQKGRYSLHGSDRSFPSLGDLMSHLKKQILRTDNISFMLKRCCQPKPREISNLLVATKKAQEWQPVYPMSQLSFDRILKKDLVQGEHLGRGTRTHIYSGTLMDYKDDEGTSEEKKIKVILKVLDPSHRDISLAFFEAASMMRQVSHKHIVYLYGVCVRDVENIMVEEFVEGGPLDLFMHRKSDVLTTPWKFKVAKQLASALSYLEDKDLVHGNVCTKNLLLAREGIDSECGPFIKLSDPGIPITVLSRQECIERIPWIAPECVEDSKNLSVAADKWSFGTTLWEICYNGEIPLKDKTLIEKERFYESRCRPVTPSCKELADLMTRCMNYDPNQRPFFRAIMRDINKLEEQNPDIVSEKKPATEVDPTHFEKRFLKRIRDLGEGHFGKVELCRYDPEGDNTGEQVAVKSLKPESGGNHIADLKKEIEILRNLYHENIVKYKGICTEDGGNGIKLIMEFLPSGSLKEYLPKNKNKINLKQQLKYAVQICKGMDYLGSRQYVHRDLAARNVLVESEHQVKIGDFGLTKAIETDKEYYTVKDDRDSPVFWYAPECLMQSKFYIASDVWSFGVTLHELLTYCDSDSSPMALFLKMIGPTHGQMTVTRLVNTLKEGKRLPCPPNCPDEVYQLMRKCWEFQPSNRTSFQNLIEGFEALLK

Row | IC50 (Recombinant JAK1) [µM] | IC50 (Recombinant JAK2) [µM] | IC50 (Recombinant JAK3) [µM] | IC50 (Recombinant TYK2) [µM] | SMILES
1 | < 0.1 | < 0.1 | < 0.1 | > 1 | CS(=O)(=O)COC(c1ccc(-n2cc(-c3ccnc4[nH]cnc34)cn2)nc1)C(F)(F)F (stereo not drawn) [Example 1140, 7-(1-(5-(1-((methylsulfonyl)methoxy)-2,2,2-trifluoroethyl)pyridin-2-yl)-1H-pyrazol-4-yl)-3H-imidazo[4,5-b]pyridine]
2 | > 0.1 | > 0.5 | > 0.1 | > 1 | COCCC(c1ccc(-n2cc(-c3ccnc4[nH]cnc34)cn2)nc1)C(F)(F)F (stereo not drawn) [Example 1155, 7-(1-(5-(1,1,1-trifluoro-4-methoxybutan-2-yl)pyridin-2-yl)-1H-pyrazol-4-yl)-3H-imidazo[4,5-b]pyridine]
3 | > 0.1 | > 0.5 | > 0.1 | > 1 | CC(C)(O)CC(c1ccc(-n2cc(-c3ccnc4[nH]cnc34)cn2)nc1)C(F)(F)F (stereo not drawn) [Example 1193, 4-(6-(4-(3H-imidazo[4,5-b]pyridin-7-yl)-1H-pyrazol-1-yl)pyridin-3-yl)-5,5,5-trifluoro-2-methylpentan-2-ol]
4 | > 0.1 | > 0.5 | > 0.1 | > 1 | CC(C)(CO)C(c1ccc(-n2cc(-c3ccnc4[nH]cnc34)cn2)nc1)C(F)(F)F (stereo not drawn) [Example 1196, 3-(6-(4-(3H-imidazo[4,5-b]pyridin-7-yl)-1H-pyrazol-1-yl)pyridin-3-yl)-4,4,4-trifluoro-2,2-dimethylbutan-1-ol]
5 | < 0.1 | < 0.1 | < 0.1 | > 1 | O=S(=O)(CCC(c1ccc(-n2cc(-c3ccnc4[nH]cnc34)cn2)nc1)C(F)(F)F)CC1CC1 (stereo not drawn) [Example 1204, 7-(1-(5-(4-(cyclopropylmethylsulfonyl)-1,1,1-trifluorobutan-2-yl)pyridin-2-yl)-1H-pyrazol-4-yl)-3H-imidazo[4,5-b]pyridine]
6 | < 0.1 | > 0.1 | > 0.1 | > 1 | O=S(=O)(CC1CC1)CC(c1ccc(-n2cc(-c3ccnc4[nH]cnc34)cn2)nc1)C(F)(F)F (stereo not drawn) [Example 1205, 7-(1-(5-(3-(cyclopropylmethylsulfonyl)-1,1,1-trifluoropropan-2-yl)pyridin-2-yl)-1H-pyrazol-4-yl)-3H-imidazo[4,5-b]pyridine]
7 | < 0.1 | > 0.1 | > 0.1 | > 1 | CC(C)N(CCC(c1ccc(-n2cc(-c3ccnc4[nH]cnc34)cn2)nc1)C(F)(F)F)C(C)C (stereo not drawn) [Example 1211, 3-(6-(4-(3H-imidazo[4,5-b]pyridin-7-yl)-1H-pyrazol-1-yl)pyridin-3-yl)-4,4,4-trifluoro-N,N-diisopropylbutan-1-amine]

More lines, now with the values behind:

Row | SMILES | IC50 (Recombinant JAK1) [µM] | IC50 (Recombinant JAK2) [µM] | IC50 (Recombinant JAK3) [µM] | IC50 (Recombinant TYK2) [µM]
8 | CS(=O)(=O)CCC(c1ccc(-n2cc(-c3ccnc4[nH]c(=O)[nH]c34)cn2)nc1)C(F)(F)F (stereo not drawn) [Example 1147, 7-(1-(5-(1,1,1-trifluoro-4-(methylsulfonyl)butan-2-yl)pyridin-2-yl)-1H-pyrazol-4-yl)-1H-imidazo[4,5-b]pyridin-2(3H)-one] | > 0.5 | > 1 | > 1 | > 1
9 | OC(c1ccc(-n2cc(-c3ccnc4[nH]cnc34)cn2)nc1)C1CC1 (stereo not drawn) [Example 1159, (6-(4-(3H-imidazo[4,5-b]pyridin-7-yl)-1H-pyrazol-1-yl)pyridin-3-yl)(cyclopropyl)methanol] | < 0.1 | > 0.1 | < 0.1 | > 1
10 | CS(=O)(=O)CCC(c1ccc(-n2cc(-c3ccnc4[nH]cnc34)cn2)nc1)C1COC1 (stereo not drawn) [Example 1160, 7-(1-(5-(3-(methylsulfonyl)-1-(oxetan-3-yl)propyl)pyridin-2-yl)-1H-pyrazol-4-yl)-3H-imidazo[4,5-b]pyridine] | > 0.1 | > 0.5 | > 0.5 | > 1
11 | COC(CCS(C)(=O)=O)c1ccc(-n2cc(-c3ccnc4[nH]cnc34)cn2)nc1 (stereo not drawn) [Example 1161, 7-(1-(5-(1-methoxy-3-(methylsulfonyl)propyl)pyridin-2-yl)-1H-pyrazol-4-yl)-3H-imidazo[4,5-b]pyridine] | > 1 | > 1 | > 0.5 | > 1
12 | CS(=O)(=O)CCC(F)c1ccc(-n2cc(-c3ccnc4[nH]cnc34)cn2)nc1 (stereo not drawn) [Example 1162, 7-(1-(5-(1-fluoro-3-(methylsulfonyl)propyl)pyridin-2-yl)-1H-pyrazol-4-yl)-3H-imidazo[4,5-b]pyridine] | > 0.5 | > 0.5 | > 0.5 | > 1
13 | CC(CCS(C)(=O)=O)c1ccc(-n2cc(-c3ccnc4[nH]cnc34)cn2)nc1 (stereo not drawn) [Example 1163, 7-(1-(5-(4-(methylsulfonyl)butan-2-yl)pyridin-2-yl)-1H-pyrazol-4-yl)-3H-imidazo[4,5-b]pyridine] | > 0.5 | > 0.5 | > 0.5 | > 1
14 | CS(=O)(=O)N1CCC(C(O)c2ccc(-n3cc(-c4ccnc5[nH]cnc45)cn3)nc2)CC1 (stereo not drawn) [Example 1164, (6-(4-(3H-imidazo[4,5-b]pyridin-7-yl)-1H-pyrazol-1-yl)pyridin-3-yl)(1-(methylsulfonyl)piperidin-4-yl)methanol] | > 1 | > 1 | > 1 | > 1
15 | CN1CCC(C(O)c2ccc(-n3cc(-c4ccnc5[nH]cnc45)cn3)nc2)CC1 (stereo not drawn) [Example 1165, (6-(4-(3H-imidazo[4,5-b]pyridin-7-yl)-1H-pyrazol-1-yl)pyridin-3-yl)(1-methylpiperidin-4-yl)methanol] | > 1 | > 1 | > 1 | > 1
16 | CS(=O)(=O)CCC(c1cccc(-n2cc(-c3ccnc4[nH]cnc34)cn2)n1)C(F)(F)F (stereo not drawn) [Example 1175, 7-(1-(6-(1,1,1-trifluoro-4-(methylsulfonyl)butan-2-yl)pyridin-2-yl)-1H-pyrazol-4-yl)-3H-imidazo[4,5-b]pyridine] | > 1 | > 1 | > 1 | > 1
17 | CS(=O)(=O)CCC(c1ccnc(-n2cc(-c3ccnc4[nH]cnc34)cn2)c1)C(F)(F)F (stereo not drawn) [Example 1176, 7-(1-(4-(1,1,1-trifluoro-4-(methylsulfonyl)butan-2-yl)pyridin-2-yl)-1H-pyrazol-4-yl)-3H-imidazo[4,5-b]pyridine] | > 1 | > 1 | > 1 | > 1
18 | CS(=O)(=O)CCC(c1ccc(-n2cc(-c3ccnc4[nH]c(=O)[nH]c34)cn2)nc1)C(F)(F)F (stereo not drawn) [Example 1189, 7-(1-(5-(1,1,1-trifluoro-4-(methylsulfonyl)butan-2-yl)pyridin-2-yl)-1H-pyrazol-4-yl)-1H-imidazo[4,5-b]pyridin-2(3H)-one] | > 0.5 | > 1 | > 1 | > 1
19 | CS(=O)(=O)CC(Cc1ccc(-n2cc(-c3ccnc4[nH]cnc34)cn2)nc1)C(F)(F)F (stereo not drawn) [Example 1194, 7-(1-(5-(3,3,3-trifluoro-2-((methylsulfonyl)methyl)propyl)pyridin-2-yl)-1H-pyrazol-4-yl)-3H-imidazo[4,5-b]pyridine] | > 0.5 | > 0.5 | > 0.5 | > 1
20 | FC(F)(F)C(CCNC1CCCCC1)c1ccc(-n2cc(-c3ccnc4[nH]cnc34)cn2)nc1 (stereo not drawn) [Example 1199, N-(3-(6-(4-(3H-imidazo[4,5-b]pyridin-7-yl)-1H-pyrazol-1-yl)pyridin-3-yl)-4,4,4-trifluorobutyl)cyclohexanamine] | < 0.1 | > 0.1 | < 0.1 | > 0.5
21 | FC(F)(F)C(CN1CCOCC1)c1ccc(-n2cc(-c3ccnc4[nH]cnc34)cn2)nc1 (stereo not drawn) [Example 1206, 7-(1-(5-(1,1,1-trifluoro-3-morpholinopropan-2-yl)pyridin-2-yl)-1H-pyrazol-4-yl)-3H-imidazo[4,5-b]pyridine] | > 0.1 | > 0.1 | > 0.5 | > 1
